Test results from patent US20110224297A1, “Methods of administering prostratin and structural analogs thereof” (priority 2008, published 2011).

Columns and labels:
[1] = In vitro metabolism in mouse liver microsomes; format: in vitro ADME
Description: In vitro metabolism of prostratin was investigated using mouse, rat, monkey, and human liver microsomes (Gentest). […] Attempts to identify the metabolite by LC/MS/MS were unsuccessful due to the low amounts present in the reaction mixtures (FIG. 1).

[2] = Single-dose range-finding study in rats; format: in vivo, Fisher rats; conditions: male, Fisher, rat, in vivo, intravenous; rats, single bolus dose; read-out: Maximum Tolerated Dose (MTD)
Procedure: (§1) A single bolus dose of prostratin (0, 0.05, 0.1, 0.2, 0.4, and 0.8 mg/kg which correspond to 0, 0.3, 0.6, 1.2, 2.4, and 4.8 mg/m^2) was administered to Fisher rats (3 males/group) to determine the maximally tolerated dose and relative drug toxicity. […] Clinical signs of toxicity included decreased activity, prostration, tremors, and altered respiratory rate (decreased in some cases, increased in others). […] In the 0.4 mg/kg dose group, ALT and AST serum levels were 2- and 3-fold higher, respectively, than group mean ALT and AST values for control rats, and potassium level was decreased in 61% of the value obtained for control group animals. […] The Maximum Tolerated Dose (MTD) in rats is between 0.2-0.4 mg/kg dose of prostratin.

Fisher rats = assay: Single-dose range-finding study in rats; format: in vivo; conditions: for mortality (died on Day 1 or Day 2): male Fisher rats
Procedure: as §1

[3] = test system: latently infected ACH-2 cells; assay: HIV expression (reverse transcriptase activity in supernatant) in latently infected ACH-2 cells; format: cell-based
Procedure: The effect of prostratin on virus replication was assessed in latently infected ACH-2 and U1 cells by measuring the accumulation of reverse transcriptase activity in the supernatant of stimulated cells (Gustafson et al., 1992, J Med Chem 35(11): 1978-86).
Briefly, 4×10^4 cells in 100 μl fresh medium were mixed with another 100 μl of medium with or without prostratin or PMA in a 96-well microtiter plate. Plates were incubated for 24-72 h at 37° C. Following incubation, supernatants were harvested, centrifuged (to remove any residual cells) and tested for reverse transcriptase activity as previously described (Gustafson et al., 1992, J Med Chem 35(11): 1978-86).
In these experiments, two concentrations of cells were tested (40,000 and 100,000 cells/well). It is noteworthy that the basal levels of reverse transcriptase activities were much higher in ACH-2 cells than in U1 cells.

SMILES: CC(=O)O[C@@]12C[C@@H](C)[C@@]3(O)[C@@H](C=C(CO)C[C@]4(O)C(=O)C(C)=C[C@@H]34)[C@@H]1C2(C)C [prostratin, 12-deoxyphorbol 13-acetate]
- metabolism (time-dependent loss of parent compound) [1]: greatest
- MTD [2]: 0.2 to 0.4 mg/kg
- albumin (ALB) level relative to control (Fisher rats; 0.2 mg/kg dose group): 88%
- ALT serum level versus control (Fisher rats; 0.4 mg/kg dose group): 2 fold
- AST serum level versus control (Fisher rats; 0.4 mg/kg dose group): 3 fold
- albumin (ALB) level relative to control (Fisher rats; 0.4 mg/kg dose group): 76%
- potassium level relative to control (Fisher rats; 0.4 mg/kg dose group): 61%
- reversibility of adverse events (Fisher rats; PLT, ALT, AST, ALB within normal range by day 8): reversible
- increase in neutrophile counts (Fisher rats; day 3, 0.4 mg/kg dose group): 1.7 fold
- decrease in platelet (PLT) counts compared to control (Fisher rats; day 3, 0.4 and 0.2 mg/kg dose groups): 62-68%
- mortality (died on Day 1 or Day 2) (Fisher rats; single bolus 0.4 mg/kg): two of the three
- mortality (died on Day 1 or Day 2) (Fisher rats; single bolus 0.8 mg/kg): 3/3
- lowest dose to get a reliable increase in reverse transcriptase activity [3]: 50 ng/mL
- stimulation time at which sizeable reverse transcriptase activity is detected [3]: 24 h
- short incubation (pulsed stimulation) time leading to detectable reverse transcriptase activity ([3]; none after 1 h and 4 h): 6 h
